For one test, the system named is A549. Kind of test: Cytotoxicity against human A549 cells by MTT method. The settings on record: read-out: ED50 (the source's name). Type of test: functional.
For the next test, the system named is P388. Kind of test: Cytotoxicity against mouse P388 cells by MTT method. The format is functional. The note with it: read-out: ED50 (the source's name).

Converted amounts (≈) assume the structure as drawn.

Turning to `C=C(C)[C@H]1[C@@H]2C[C@@H](C)CC[C@H]2C(C)=C[C@H]1O` [XENITORIN A], the EC50 with A549 was found to be 0.79 µg/mL (≈ 3.59 µM).
For `C=C(C)[C@@H]1C(=O)C=C(C)[C@@H]2CC[C@H](C)C[C@@H]12` [XENITORIN B], the EC50 with P388 and with A549 was over 50 µg/mL in each case.
Take `C=C(C)[C@@H]1C=C[C@](C)(O)[C@@H]2CC[C@H](C)C[C@H]21` [XENITORIN C]: the EC50 with P388 and in the test with A549 was over 50 µg/mL each time.
Take `C=C(C)[C@@H]1[C@H](O)[C@@H]2O[C@]2(C)[C@@H]2CC[C@H](C)C[C@@H]12` [XENITORIN D]: the EC50 with P388 and in the test on A549 was over 50 µg/mL each time.
Turning to `C=C(C)[C@@H]1C(=O)C=C(C)[C@]2(O)CC[C@H](C)C[C@@H]12` [XENITORIN E], the EC50 in the test on P388 is 3.69 µg/mL (≈ 15.7 µM); in the test with A549 it was 1.86 µg/mL (≈ 7.94 µM).
The matching figures for `C=C(C)[C@@H]1C(=O)C=C(C)[C@@]2(O)CC[C@H](C)C[C@@H]12` [XENITORIN F]: over 50 µg/mL and over 50 µg/mL.

Values taken from ChEMBL document CHEMBL1137815, “New cadinene sesquiterpenoids from the Formosan soft coral Xenia puerto-galerae” (2002).
